# Experimental data from patent US20030072816A1, “Agents improving skin barrier function” (priority 2000, published 2003).
# Tested on: Human epidermal keratinocytes
# Assay: Formation of CE in cultured keratinocytes (amount of CE by visual observation or count under a microscope)
# Type: cell-based
# Set-up: key: −: No CE formation; ++: CE formation in an amount equal to that in positive control (growth medium) is observed; +++: Clearly more CE formation than in positive control (growth medium) is observed
# Details: test substance 3% in MEM containing 0.1% bovine serum albumin, cultured 1 week
# Procedure: Human epidermal keratinocytes were cultured according to the method of Rheinwald & Green (Cell 6: 331-344, 1975). The cells were cultured in a growth medium (DMEM-Ham's F12 (3:1) containing 10% fetal bovine serum, 0.5 μg/ml hydrocortisone, 5 μg/ml insulin, 10^−10 M cholera toxin, 10 ng/ml epidermal growth factor and 1.8×10^−4 M adenine) up to confluent, the medium was replaced with a medium (MEM containing 0.1% bovine serum albumin) containing a test substance, and culturing was continued for further 1 week. After completion of the culturing, Tris-hydrochloric acid buffer containing dithiothreitol and sodium dodecyl sulfate was added, and the mixture was heated at 100° C. for 10 minutes. The insoluble substance was collected by centrifugation at 4,000 g for 10 minutes. The eluent addition and heating were repeated and thereby soluble components were thoroughly removed. The thus obtained insoluble substance was referred to as CE. The amount of the obtained CE was evaluated by visual observation. Otherwise, the number was counted under a microscope using a cytometer.
smiles,measurement,value
CC(C)CCCC(C)CCCC(C)CCCCC(C)CCCC(C)CCCC(C)C (stereo not shown) [Squalane],CE formation-accelerating effect,−
